Data taken from patent US4950669A, “Methods and compositions for promoting growth of animals” (priority 1987, dated 1990).

Experiments:
[1] = 44-day floor pen study in chickens (Example XIV); type: in vivo
Protocol: A 44-day floor pen study was conducted in which n-morpholinyl-β-benzoyl-propionamide was administered in chicken feed at concentrations of 1 ppm, 2.5 ppm, 5 ppm, 10 ppm, 20 ppm, 40 ppm and 60 ppm. One group of controls received no medication in its feed, while a second control group received Bacitracin MD in its feed at 30 g/ton. Birds were fed ad libitum. There were 5 replications per treatment, 50 birds per replication. Birds were weighed to determine weight gain and feed-to-gain ration after 35 days and 44 days.

[2] = rabbit, in vivo, ip, 100 mg/kg
[3] = hypotensive effect in the awake rabbit; type: in vivo; details: same dosage (100 mg/kg) i.p.
[4] = battery study in chickens (Example XVI); type: in vivo; details: for Mortality: unmedicated 1.1
Protocol: A battery study was conducted in which N-morpholinyl-β-benzoyl-propionamide was administered to chickens in their feed at levels at 2.5 ppm and 5.0 ppm. The control group was unmedicated. Each medicated treatment had 10 replications of 8 birds per replication, with non-medicated controls having 20 replications of 8 birds per replication. Birds were weighed to determine weight gain and feed-to-gain ratio on days 7, 14 and 21.

[5] = pig growth study, intramuscular injection (Example X); type: in vivo; details: pigs, 1 mg/kg i.m. every seven days
Protocol: N-morpholinyl-β-benzoylpropionamide (NMBP) was formulated as an injectable product at a concentration of 2% in polyethylene glycol. The formulation was administered to pigs by intramuscular injection at a dosage of 1 mg/kg, once every seven days. Pigs averaged 52.66 kg at initiation and were terminated at 90.8 kg. Control animals received no injections.

[6] = 28-day chicken growth study, feed or i.m. injection (Example XII); type: in vivo, chickens
Protocol: Portions of N-morpholinyl-β-benzoyl-propionamide were admixed with chicken feed at 1 mg/kg and a 2 mg/kg, respectively. Another portion was formulated into an injectable formulation at a concentration of 2% in polyethylene glycol. The N-morpholinyl-β-benzoylpropionamide was then administered to chickens, either by i.m. injection or in feed, over 28-day period. One group of controls received no medication, while another group of controls received Bacitracin MD in its feed at 30 g/ton. Those chickens receiving intramuscular injections were injected once a week with a dosage of either 1 mg/kg or 2 mg/kg, based on body weight. Birds were weighed on days 0, 14 and 28.

[7] = six-week swine feeding study, weanling barrows (Example XI); type: in vivo; details: six weeks; for daily feed (rel.) / Avg. daily gain (rel.): control = 100; for Avg. daily gain / Avg. daily gain (rel.): swine feed
Protocol: N-morpholinyl-β-benzoyl-propionamide was admixed with swine feed at 20 ppm and at 60 ppm. A six-week feeding study was conducted using weanling barrows. Pigs averaging 8.80 kg initially (4-5 weeks of age) were housed four pigs per pen. Test diets were fed ad libitum throughout the six-week study. Average final weight for all pigs was 27.33 kg.

[8] = rat, in vivo, ip, 50 mg/kg
Protocol: Per os, in the mouse still, the LD50 is above 2000 mg/kg. In the rat, after i.p. treatment with 50 mg/kg there was, within 3 hours from administration, a maximum lowering of the body temperature of 0.6° in respect to the controls treated with the only suspending medium.

[9] = 44-day floor-pen study in chickens (Example XV); type: in vivo; details: 44 days
Description: There were 60 chickens per replication, 3 replications per treatment. One group of controls was unmedicated, while a second control group received Bacitracin in the feed at 30 g/ton.

[10] = Injection 1 mg/kg i.m. once a week, Day 14
[11] = Injection 1 mg/kg i.m. once a week, Day 28
[12] = Injection 2 mg/kg i.m. once a week, Day 14
[13] = Injection 2 mg/kg i.m. once a week, Day 28

O=C(CCC(=O)N1CCOCC1)c1ccccc1 [NMBP, N-morpholinyl-β-benzoyl-propionamide]
F/G ([1]; feed 1 ppm, Day 35): 1.60
Weight Gain ([1]; feed 1 ppm, Day 35): 1379 g
F/G ([1]; feed 1 ppm, Day 44): 1.72
Weight Gain ([1]; feed 1 ppm, Day 44): 1917 g
F/G ([1]; feed 2.5 ppm, Day 35): 1.55
Weight Gain ([1]; feed 2.5 ppm, Day 35): 1431 g
F/G ([1]; feed 2.5 ppm, Day 44): 1.69
Weight Gain ([1]; feed 2.5 ppm, Day 44): 1961 g
F/G ([1]; feed 5 ppm, Day 35): 1.61
Weight Gain ([1]; feed 5 ppm, Day 35): 1381 g
F/G ([1]; feed 5 ppm, Day 44): 1.72
Weight Gain ([1]; feed 5 ppm, Day 44): 1929 g
F/G ([1]; feed 10 ppm, Day 35): 1.60
Weight Gain ([1]; feed 10 ppm, Day 35): 1356 g
F/G ([1]; feed 10 ppm, Day 44): 1.74
Weight Gain ([1]; feed 10 ppm, Day 44): 1883 g
F/G ([1]; feed 20 ppm, Day 35): 1.61
Weight Gain ([1]; feed 20 ppm, Day 35): 1364 g
F/G ([1]; feed 20 ppm, Day 44): 1.72
Weight Gain ([1]; feed 20 ppm, Day 44): 1901 g
F/G ([1]; feed 40 ppm, Day 35): 1.63
Weight Gain ([1]; feed 40 ppm, Day 35): 1334 g
F/G ([1]; feed 40 ppm, Day 44): 1.72
Weight Gain ([1]; feed 40 ppm, Day 44): 1898 g
F/G ([1]; feed 60 ppm, Day 35): 1.57
Weight Gain ([1]; feed 60 ppm, Day 35): 1334 g
F/G ([1]; feed 60 ppm, Day 44): 1.72
Weight Gain ([1]; feed 60 ppm, Day 44): 1875 g
electrocardiographic variations compared to the controls [2]: no electrocardiographic variations
hypotensive effect [3]: not hypotensive
Feed Conversion ([4]; feed 2.5 ppm, D + 7): 1.67
Weight Gain ([4]; feed 2.5 ppm, D + 7): 256 g
Feed Conversion ([4]; feed 2.5 ppm, D + 14): 1.98
Weight Gain ([4]; feed 2.5 ppm, D + 14): 526 g
Feed Conversion ([4]; feed 2.5 ppm, D + 21): 1.70
Weight Gain ([4]; feed 2.5 ppm, D + 21): 1075 g
Mortality ([4]; feed 2.5 ppm): 1.4
Feed Conversion ([4]; feed 5.0 ppm, D + 7): 1.65
Weight Gain ([4]; feed 5.0 ppm, D + 7): 262 g
Feed Conversion ([4]; feed 5.0 ppm, D + 14): 2.02
Weight Gain ([4]; feed 5.0 ppm, D + 14): 523 g
Feed Conversion ([4]; feed 5.0 ppm, D + 21): 1.71
Weight Gain ([4]; feed 5.0 ppm, D + 21): 1027 g
Mortality ([4]; feed 5.0 ppm): .8
improvement of average daily gain as compared with controls [5]: about 10%
improvement of feed-to-gain ratio as compared with controls [5]: about 4%
average daily gain (ADG) ([5]; control 0.867): 0.958 kg
average daily feed consumption (ADF) ([5]; control 2.76): 2.96 kg
feed-to-gain ratio (F/G) ([5]; control 3.18): 3.03
Average Weight ([6]; Feed 1 mg/kg, Day 0 (baseline)): 98.9 g
Average Weight ([6]; Feed 1 mg/kg, Day 14): 462.8 g
Feed Conversion ([6]; Feed 1 mg/kg, Day 14): 1.38
Weight Gain ([6]; Feed 1 mg/kg, Day 14): 363.9 g
Average Weight ([6]; Feed 1 mg/kg, Day 28): 947.6 g
Feed Conversion ([6]; Feed 1 mg/kg, Day 28): 1.64
Weight Gain ([6]; Feed 1 mg/kg, Day 28): 848.7 g
Average Weight ([6]; Feed 2 mg/kg, Day 0 (baseline)): 98.5 g
Average Weight ([6]; Feed 2 mg/kg, Day 14): 474.3 g
Feed Conversion ([6]; Feed 2 mg/kg, Day 14): 1.38
Weight Gain ([6]; Feed 2 mg/kg, Day 14): 375.8 g
Average Weight ([6]; Feed 2 mg/kg, Day 28): 1013.5 g
Feed Conversion ([6]; Feed 2 mg/kg, Day 28): 1.56
Weight Gain ([6]; Feed 2 mg/kg, Day 28): 915.0 g
Average Weight ([6]; Injection 1 mg/kg i.m. once a week, Day 0 (baseline)): 98.7 g
Average Weight [6, 10]: 460.6 g
Feed Conversion [6, 10]: 1.37
Weight Gain [6, 10]: 361.9 g
Average Weight [6, 11]: 938.2 g
Feed Conversion [6, 11]: 1.61
Weight Gain [6, 11]: 839.5 g
Average Weight ([6]; Injection 2 mg/kg i.m. once a week, Day 0 (baseline)): 98.6 g
Average Weight [6, 12]: 456.3 g
Feed Conversion [6, 12]: 1.38
Weight Gain [6, 12]: 357.7 g
Average Weight [6, 13]: 971.4 g
Feed Conversion [6, 13]: 1.56
Weight Gain [6, 13]: 872.8 g
daily feed ([7]; 20 ppm): 1.022 kg
daily feed (rel.) ([7]; 20 ppm): 107
daily feed ([7]; 60 ppm): 0.96 kg
daily feed (rel.) ([7]; 60 ppm): 101
Avg. daily gain ([7]; 20 ppm): 0.45 kg
Avg. daily gain (rel.) ([7]; 20 ppm): 108
Avg. daily gain ([7]; 60 ppm): 0.42 kg
Avg. daily gain (rel.) ([7]; 60 ppm): 100
maximum lowering of the body temperature in respect to the controls [8]: 0.6 °
Average Live Bird Weight ([9]; feed 1.0 ppm): 2.13 kg
Feed Conversion ([9]; feed 1.0 ppm): 1.72
Average Live Bird Weight ([9]; feed 2.5 ppm): 2.14 kg
Feed Conversion ([9]; feed 2.5 ppm): 1.73
Average Live Bird Weight ([9]; feed 5 ppm): 2.08 kg
Feed Conversion ([9]; feed 5 ppm): 1.75
Average Live Bird Weight ([9]; feed 10 ppm): 2.14 kg
Feed Conversion ([9]; feed 10 ppm): 1.72
Average Live Bird Weight ([9]; feed 20 ppm): 2.12 kg
Feed Conversion ([9]; feed 20 ppm): 1.72
Average Live Bird Weight ([9]; feed 40 ppm): 2.10 kg
Feed Conversion ([9]; feed 40 ppm): 1.75
Average Live Bird Weight ([9]; feed 60 ppm): 2.14 kg
Feed Conversion ([9]; feed 60 ppm): 1.75
